According to ChEMBL document CHEMBL1146486, “Biologically active compounds from Aphyllophorales (polypore) fungi” (J Nat Prod, 2004):
In brackets after ≈: the same amount, converted by molar mass.

How the values were obtained:
[1] = target: Transient receptor potential cation channel subfamily V member 1 (Homo sapiens, UniProt Q8NER1); assay: Inhibition of Vanilloid receptor 1
[2] = Inhibition of lipid peroxidation; format: functional
[3] = Inhibition of pig brain phospholipase; set-up: species or system Sus scrofa
Bacillus cereus = assay: Antimicrobial activity against Bacillus cereus; format: functional
Leuconostoc = assay: Antimicrobial activity against Leuconostoc plantarum; format: functional
Staphylococcus aureus = assay: Antimicrobial activity against Staphylococcus aureus; format: functional
Micrococcus = assay: Antimicrobial activity against Micrococcus flavus; format: functional
Bacillus anthracis = assay: Antimicrobial activity against Bacillus anthracis; format: functional
[4] = Inhibition of almond beta-glucosidase; set-up: species or system Prunus dulcis
[5] = Cytotoxicity against human KATO III cells; format: functional, cell-based, KATO III cell
Aspergillus niger = assay: Antimicrobial activity against Aspergillus niger; format: functional
Aspergillus flavus = assay: Antimicrobial activity against Aspergillus flavus; format: functional
Amylomyces rouxii = assay: Antimicrobial activity against Mucor rouxii; format: functional
L929 = assay: Cytotoxicity against mouse L929 cells; format: cell-based
HeLa = assay: Cytotoxicity against human HeLa cells; format: functional, cell-based
MDCK = assay: Cytotoxicity against MDCK cells; format: cell-based; details: Canis lupus familiaris
[6] = Cytotoxicity against human FL cells; format: functional, cell-based
Protease = Protease (Human immunodeficiency virus 1, UniProt Q9YQ12); assay: Inhibition of HIV1 protease
[7] = Cytotoxicity against mouse Meth-A cells; format: functional; details: read-out: ED50 (the source's name)
CCRF S-180 = assay: Cytotoxicity against mouse S180 cells; format: functional; details: read-out: ED50 (the source's name)
T47D = assay: Cytotoxicity against human T47D cells; format: functional; details: read-out: ED50 (the source's name)
[8] = Cytotoxicity against mouse LLC cells; format: functional; details: Lewis lung carcinoma, read-out: ED50 (the source's name)
Arthrobacter citreus = assay: Antimicrobial activity against Arthrobacter citreus; format: functional
Bacillus subtilis = assay: Antimicrobial activity against Bacillus subtilis; format: functional
[9] = system: Clavibacter michiganensis subsp. insidiosus; assay: Antimicrobial activity against Corynebacterium insidiosum; format: functional
Kocuria rosea = assay: Antimicrobial activity against Micrococcus roseus; format: functional
Micrococcus luteus = assay: Antimicrobial activity against Sarcina lutea; format: functional
[10] = Inhibition of DNA synthesis in human ECA cells assessed as blockade of thymidine incorporation; format: functional, cell-based
[11] = Toxicity in mouse at 225 mg/kg; format: organism-based; set-up: dose 225 mg/kg; details: in vivo
Alternaria = assay: Antimicrobial activity against Alternaria; format: functional
[12] = Inhibition of NF-kappaB by secreted alkaline phosphatase based reporter gene assay
[13] = Antiplatelet activity assessed as inhibition of ADP-stimulated bovine platelet aggregation; format: functional; details: Bos taurus
[14] = Antiplatelet activity assessed as inhibition of ADP-stimulated human platelet aggregation; format: functional
L1210 = assay: Cytotoxicity against mouse L1210 cells; format: functional, cell-based
HL-60 = assay: Cytotoxicity against human HL60 cells
Liver microsomes = assay: Antioxidant activity in rat liver microsomes assessed as inhibition of lipid peroxidation; format: functional, Microsome

Sequence of Transient receptor potential cation channel subfamily V member 1 (Q8NER1 whole entry): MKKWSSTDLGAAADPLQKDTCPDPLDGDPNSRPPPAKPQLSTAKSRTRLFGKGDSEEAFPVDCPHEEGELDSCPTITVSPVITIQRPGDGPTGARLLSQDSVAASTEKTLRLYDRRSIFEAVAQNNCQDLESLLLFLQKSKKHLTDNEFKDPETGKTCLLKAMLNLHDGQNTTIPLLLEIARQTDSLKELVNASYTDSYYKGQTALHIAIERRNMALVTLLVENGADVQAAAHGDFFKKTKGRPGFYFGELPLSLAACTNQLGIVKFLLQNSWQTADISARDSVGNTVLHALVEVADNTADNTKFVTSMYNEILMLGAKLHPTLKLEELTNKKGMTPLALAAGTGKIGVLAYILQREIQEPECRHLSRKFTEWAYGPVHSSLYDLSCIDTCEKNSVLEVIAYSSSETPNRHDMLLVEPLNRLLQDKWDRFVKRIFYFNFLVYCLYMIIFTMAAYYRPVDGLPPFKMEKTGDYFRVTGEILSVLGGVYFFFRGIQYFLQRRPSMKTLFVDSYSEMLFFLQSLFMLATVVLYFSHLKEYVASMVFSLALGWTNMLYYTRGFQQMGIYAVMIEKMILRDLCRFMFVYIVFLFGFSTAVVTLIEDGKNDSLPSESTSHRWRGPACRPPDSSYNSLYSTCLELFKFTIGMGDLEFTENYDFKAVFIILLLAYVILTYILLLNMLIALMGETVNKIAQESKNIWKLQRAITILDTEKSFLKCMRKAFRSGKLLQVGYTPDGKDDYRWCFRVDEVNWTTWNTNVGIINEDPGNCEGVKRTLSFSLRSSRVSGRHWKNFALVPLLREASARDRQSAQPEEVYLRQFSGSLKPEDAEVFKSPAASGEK
Sequence of Protease (Q9YQ12 whole entry): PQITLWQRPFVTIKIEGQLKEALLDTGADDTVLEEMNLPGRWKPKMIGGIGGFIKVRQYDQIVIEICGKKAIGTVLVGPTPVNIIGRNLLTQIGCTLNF

Structure (SMILES): Cc1cc(O)c(C[C@@H]2[C@@]3(C)CCCC(C)(C)[C@@H]3CC[C@@]2(C)O)c(O)c1 [ALBACONOL]
- IC50 [1]: 5 µM

Structure (SMILES): COC1=C(c2ccccc2)C(=O)C(OC)=C(c2ccccc2)C1=O [BETULINAN A]
- IC50 [2]: 0.46 µg/mL (≈ 1.44 µM)

Structure (SMILES): COC1=C(c2ccccc2)C(=O)C2=C(C1=O)c1ccccc1CO2 [BETULINAN B]
- IC50 [2]: 2.88 µg/mL (≈ 9.05 µM)

Structure (SMILES): CC(=O)O[C@@H]1[C@H](O[C@H](CO)[C@H](O)[C@@H](O)[C@@H](OC(C)=O)C(=O)O[C@H](C)CCCCCCCCCCCCCCCc2cccc(O)c2C(=O)O)O[C@H](CO)[C@@H](O)[C@@H]1O [CALOPOROSIDE]
- Ki [3]: 10 µg/mL (≈ 12.2 µM)

Structure (SMILES): Nc1c(C(=O)O)c2nc3c(CO)cccc3oc-2cc1=O [CINNABARIN]
- MIC (Bacillus cereus): 62.5 µg/mL (≈ 218 µM)
- MIC (Leuconostoc): 62.5 µg/mL (≈ 218 µM)

Structure (SMILES): CC1(C)C[C@H]2[C@@H]([C@H]1O)[C@@]1(C)[C@@]3(O[C@@H]3C(=O)[C@@]13CO3)[C@H]2O [CORIOLIN]
- MIC (Staphylococcus aureus): 12.5 µg/mL (≈ 44.6 µM)
- MIC (Micrococcus): 12.5 µg/mL (≈ 44.6 µM)
- MIC (Bacillus anthracis): 12.5 µg/mL (≈ 44.6 µM)

Structure (SMILES): OC[C@@H]1[C@@H](O)[C@H](O)[C@@H](O)[C@@H]2O[C@H]12 [CYCLOPHELLITOL]
- IC50 [4]: 0.8 µg/mL (≈ 4.54 µM)

Structure (SMILES): OCCCc1ccc2oc(-c3ccc4c(c3)OCO4)cc2c1 [DEMETHOXYEGONOL]
- IC50 [5]: 27.5 µg/mL (≈ 92.8 µM)

Structure (SMILES): C=C1C(=O)[C@H]2O[C@]23C[C@H]2CC(C)(C)C[C@H]2[C@]13C [DESOXYHYPNOPHILIN]
- MIC (Bacillus cereus): 1 µg/mL (≈ 4.3 µM)
- MIC (Aspergillus niger): 1 µg/mL (≈ 4.3 µM)
- MIC (Aspergillus flavus): 1 µg/mL (≈ 4.3 µM)
- MIC (Amylomyces rouxii): 1 µg/mL (≈ 4.3 µM)
- IC50 (L929): 2.4 µg/mL (≈ 10.3 µM)

Structure (SMILES): COc1cc(CCCO[C@@H]2O[C@H](CO)[C@@H](O)[C@H](O)[C@H]2O)cc2cc(-c3ccc4c(c3)OCO4)oc12 [EGONOL GLUCOSIDE]
- IC50 [5]: 24.9 µg/mL (≈ 51 µM)

Structure (SMILES): COc1cc(CCCO)cc2cc(-c3ccc4c(c3)OCO4)oc12 [EGONOL]
- IC50 [5]: 28.8 µg/mL (≈ 88.2 µM)

Structure (SMILES): O=Cc1ccc(O)c(O)c1C=O [FOMECIN B]
- IC50 (HeLa): 20 µg/mL (≈ 120 µM)
- IC50 (MDCK): 14 µg/mL (≈ 84.3 µM)
- IC50 [6]: 17 µg/mL (≈ 102 µM)

Structure (SMILES): C/C(=C\CC[C@@H](C)[C@H]1CC(=O)[C@@]2(C)C3=C(C(=O)C[C@]12C)[C@@]1(C)CC[C@H](O)C(C)(C)[C@@H]1C[C@@H]3O)C(=O)O [GANODERIC ACID BETA]
- IC50 (Protease): 20 µM

Structure (SMILES): C=C1[C@@H](O)[C@H]2O[C@]23C[C@H]2CC(C)(C)[C@H](O)[C@H]2[C@]13C [HYPNOPHILIN 1]
- IC50 (L929): 0.9 µg/mL (≈ 3.6 µM)

Structure (SMILES): C=C1C(=O)[C@H]2O[C@]23C[C@H]2CC(C)(C)[C@H](O)[C@H]2[C@]13C [HYPNOPHILIN]
- MIC (Bacillus cereus): 1 µg/mL (≈ 4.03 µM)
- MIC (Aspergillus niger): 1 µg/mL (≈ 4.03 µM)
- MIC (Aspergillus flavus): 1 µg/mL (≈ 4.03 µM)
- MIC (Amylomyces rouxii): 1 µg/mL (≈ 4.03 µM)

Structure (SMILES): C=C(CC[C@@H](C)[C@H]1CC[C@@]2(C)C3=C(CC[C@]12C)[C@@]1(C)CC[C@H](O)C(C)(C)C1CC3=O)C(C)C=O (stereo partly specified) [LUCIALDEHYDE C]
- EC50 [7]: 3.8 µg/mL (≈ 8.11 µM)
- EC50 (CCRF S-180): 7.1 µg/mL (≈ 15.1 µM)
- EC50 (T47D): 4.7 µg/mL (≈ 10 µM)
- EC50 [8]: 10.7 µg/mL (≈ 22.8 µM)

Structure (SMILES): CCCCCCCC/C=C\CCCCCCCc1cc(O)cc(O)c1C(=O)O [MERULINIC ACID A]
- MIC (Arthrobacter citreus): 0.4 µg/mL (≈ 1.02 µM)
- MIC (Bacillus subtilis): 0.4 µg/mL (≈ 1.02 µM)
- MIC [9]: 0.4 µg/mL (≈ 1.02 µM)
- MIC (Kocuria rosea): 0.4 µg/mL (≈ 1.02 µM)
- MIC (Micrococcus luteus): 0.4 µg/mL (≈ 1.02 µM)

Structure (SMILES): CC(O)CCCCCC/C=C\CCCCCCCc1cccc(O)c1C(=O)O (stereo unspecified) [MERULINIC ACID B]
- MIC (Arthrobacter citreus): 0.4 µg/mL (≈ 1.02 µM)
- MIC (Bacillus subtilis): 0.4 µg/mL (≈ 1.02 µM)
- MIC [9]: 0.4 µg/mL (≈ 1.02 µM)
- MIC (Kocuria rosea): 0.4 µg/mL (≈ 1.02 µM)
- MIC (Micrococcus luteus): 0.4 µg/mL (≈ 1.02 µM)

Structure (SMILES): CCCCCCCC/C=C\CCCCCCCc1cccc(O)c1C(=O)O [MERULINIC ACID C]
- MIC (Arthrobacter citreus): 0.4 µg/mL (≈ 1.07 µM)
- MIC (Bacillus subtilis): 0.4 µg/mL (≈ 1.07 µM)
- MIC [9]: 0.4 µg/mL (≈ 1.07 µM)
- MIC (Kocuria rosea): 0.4 µg/mL (≈ 1.07 µM)
- MIC (Micrococcus luteus): 0.4 µg/mL (≈ 1.07 µM)

Structure (SMILES): C=C1C(=O)[C@H](OC(C)=O)/C=C(\C)C(=O)[C@H](O)[C@@H]2[C@@H]1CC2(C)C [NAEMATOLON]
- IC50 [10]: 2 µg/mL (≈ 6.53 µM)
- LD50 [11]: 225 mg/kg

Structure (SMILES): Cc1oc(=O)c2c(O)cccc2c1C [OOSPOLACTONE]
- MIC (Alternaria): 12.5 µg/mL (≈ 65.7 µM)

Structure (SMILES): CC(C)=C[C@H](O)C1=C[C@@H](O)[C@@H]2O[C@@H]2C1=O [PANEPOXYDONE]
- IC50 [12]: 1.5 µg/mL (≈ 7.14 µM)

Structure (SMILES): CC1(C)CCC(=O)[C@@H]2[C@@H](C=O)C(C=O)=CC[C@@H]21 [PANUDIAL]
- IC30 [13]: 2.5 µg/mL (≈ 10.7 µM)
- IC30 [14]: 6 µg/mL (≈ 25.6 µM)

Structure (SMILES): CC(C)C(C)C[C@@H](O)[C@](C)(O)[C@H]1CC[C@@]2(O)C3=CC(=O)[C@@H]4C[C@@H](O)[C@@H](O)C[C@]4(C)[C@H]3CC[C@]12C (stereo partly specified) [POLYPORUSTERONE A]
- IC50 (L1210): 10 µg/mL (≈ 20.9 µM)

Structure (SMILES): C=C(C[C@@H](O)[C@](C)(O)[C@H]1CC[C@@]2(O)C3=CC(=O)[C@@H]4C[C@@H](O)[C@@H](O)C[C@]4(C)[C@H]3CC[C@]12C)C(C)C [POLYPORUSTERONE B]
- IC50 (L1210): 10 µg/mL (≈ 21 µM)

Structure (SMILES): CC(C)C(C)C1O[C@H]1[C@](C)(O)[C@H]1CC[C@@]2(O)C3=CC(=O)[C@@H]4C[C@@H](O)[C@@H](O)C[C@]4(C)[C@H]3CC[C@]12C (stereo partly specified) [POLYPORUSTERONE C]
- IC50 (L1210): 10 µg/mL (≈ 21 µM)

Structure (SMILES): C=C([C@H](O)C[C@H](C)C(C)C)[C@H]1CC[C@@]2(O)C3=CC(=O)[C@@H]4C[C@@H](O)[C@@H](O)C[C@]4(C)[C@H]3CC[C@]12C [POLYPORUSTERONE D]
- IC50 (L1210): 10 µg/mL (≈ 21.7 µM)

Structure (SMILES): CC(C)[C@@H](C)[C@@H]1O[C@H]1[C@@H](C)[C@H]1CC[C@@]2(O)C3=CC(=O)[C@@H]4C[C@@H](O)[C@@H](O)C[C@]4(C)[C@H]3CC[C@]12C [POLYPORUSTERONE E]
- IC50 (L1210): 10 µg/mL (≈ 21.7 µM)

Structure (SMILES): CC(C)[C@@H](C)C[C@@H](O)[C@@H](C)[C@H]1CC[C@@]2(O)C3=CC(=O)[C@@H]4C[C@@H](O)[C@@H](O)C[C@]4(C)[C@H]3CC[C@]12C [POLYPORUSTERONE F]
- IC50 (L1210): 10 µg/mL (≈ 21.6 µM)

Structure (SMILES): C=C(C[C@@H](O)[C@@H](C)[C@H]1CC[C@@]2(O)C3=CC(=O)[C@@H]4C[C@@H](O)[C@@H](O)C[C@]4(C)[C@H]3CC[C@]12C)C(C)C [POLYPORUSTERONE G]
- IC50 (L1210): 10 µg/mL (≈ 21.7 µM)

Structure (SMILES): C=C(C)[C@@H]1CCC2=C(CC[C@]3(C)[C@@H]([C@@H](CCC=C(C)C)C(=O)O)[C@H](O)C[C@@]23C)[C@@]1(C)CCC(=O)O [PORICOIC ACID G]
- GI50 (HL-60): 0.0393 µM

Structure (SMILES): CC1(C)C=Cc2ccc(O[C@@H]3O[C@H](CO)[C@@H](O)[C@H]3O)cc2O1 [STERIN A]
- IC50 (Liver microsomes): 8 µg/mL (≈ 25.9 µM)
